Article PMC12595434, “Development of retinoid nuclear receptor pathway antagonists through targeting aldehyde dehydrogenase 1A3” (iScience, 2025)

Key:
NPTN = test: Cellular thermal shift assay (CETSA) in A375 cells; format: cell-based, human; conditions: 100 nM, 1h at 37°C
Experimental: CETSA was performed according to protocols described before.[85] Briefly, 6 × 10cm dishes of A375 cells were collected and treated with 100 nM MBE1 or 0.1% DMSO for 1h at 37°C. Afterward, cells were pelleted through centrifugation at 300g for 5 min. Cells were then washed with ice-cold PBS and resuspended in 800 μL of PBS. Cell suspension was aliquoted to 7xPCR tubes with 100 μL each and subjected to thermal denaturation at 46.3, 48.6, 52.2, 56.5, 60.1, 62.5, 64.0°C for 3 min. The resulting sample was snap frozen in liquid nitrogen followed by incubation at room temperature until fully thawed. This procedure was performed twice followed by brief vortexing and mixing to release soluble proteins from the cells. Samples were then transferred to 1.5 mL Eppendorf tubes and centrifuged at 20,000g for 20 min at 4°C, 90 μL of the resulting supernatant was collected into another new 1.5 mL Eppendorf tube and subjected to protein analysis by western blot (WB). NPTN (proteintech #28022-1-AP) and ALDH1A3 (abcam #ab129815) were used to detect target proteins while GelCode Blue Stain Reagent (Thermofisher scientific #24590) was used to stain for total proteins loaded in the WB analysis.

RHPN2 = biological target: T1, RHPN2 (Homo sapiens, UniProt Q8IUC4); test: Thermal proteome profiling (TPP) in A375 cells; format: cell-based; conditions: RHPN2, 100 nM
T1 construct: Treated A375 cells were harvested from 10 × 15 cm plates; endogenous in cells; host or cells: A375 melanoma cells
T1 sequence (Q8IUC4 whole entry): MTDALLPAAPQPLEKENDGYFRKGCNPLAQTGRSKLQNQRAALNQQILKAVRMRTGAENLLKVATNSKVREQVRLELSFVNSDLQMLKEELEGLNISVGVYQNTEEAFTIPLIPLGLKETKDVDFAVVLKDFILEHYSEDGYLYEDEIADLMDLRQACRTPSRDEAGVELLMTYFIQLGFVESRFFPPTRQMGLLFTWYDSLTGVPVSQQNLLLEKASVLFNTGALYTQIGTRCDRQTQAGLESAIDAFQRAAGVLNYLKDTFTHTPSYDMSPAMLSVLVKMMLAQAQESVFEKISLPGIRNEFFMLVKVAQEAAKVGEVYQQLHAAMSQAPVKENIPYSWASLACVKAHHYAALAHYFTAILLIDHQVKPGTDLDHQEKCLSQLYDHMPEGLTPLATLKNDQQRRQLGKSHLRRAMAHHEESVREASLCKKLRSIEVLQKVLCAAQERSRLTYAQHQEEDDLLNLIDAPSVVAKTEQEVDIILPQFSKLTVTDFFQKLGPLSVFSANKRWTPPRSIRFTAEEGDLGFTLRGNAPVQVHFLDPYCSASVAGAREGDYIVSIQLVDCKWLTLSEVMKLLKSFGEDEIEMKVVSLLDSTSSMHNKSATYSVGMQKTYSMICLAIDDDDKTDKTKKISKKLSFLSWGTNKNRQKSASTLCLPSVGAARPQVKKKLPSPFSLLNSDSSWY

ROBO1 = biological target: T2, ROBO1 (Homo sapiens, UniProt Q9Y6N7); test: Thermal proteome profiling (TPP) in A375 cells; format: cell-based; conditions: ROBO1, 100 nM
T2 construct: Treated A375 cells were harvested from 10 × 15 cm plates; endogenous in cells; host or cells: A375 melanoma cells
T2 sequence (Q9Y6N7 26-1651): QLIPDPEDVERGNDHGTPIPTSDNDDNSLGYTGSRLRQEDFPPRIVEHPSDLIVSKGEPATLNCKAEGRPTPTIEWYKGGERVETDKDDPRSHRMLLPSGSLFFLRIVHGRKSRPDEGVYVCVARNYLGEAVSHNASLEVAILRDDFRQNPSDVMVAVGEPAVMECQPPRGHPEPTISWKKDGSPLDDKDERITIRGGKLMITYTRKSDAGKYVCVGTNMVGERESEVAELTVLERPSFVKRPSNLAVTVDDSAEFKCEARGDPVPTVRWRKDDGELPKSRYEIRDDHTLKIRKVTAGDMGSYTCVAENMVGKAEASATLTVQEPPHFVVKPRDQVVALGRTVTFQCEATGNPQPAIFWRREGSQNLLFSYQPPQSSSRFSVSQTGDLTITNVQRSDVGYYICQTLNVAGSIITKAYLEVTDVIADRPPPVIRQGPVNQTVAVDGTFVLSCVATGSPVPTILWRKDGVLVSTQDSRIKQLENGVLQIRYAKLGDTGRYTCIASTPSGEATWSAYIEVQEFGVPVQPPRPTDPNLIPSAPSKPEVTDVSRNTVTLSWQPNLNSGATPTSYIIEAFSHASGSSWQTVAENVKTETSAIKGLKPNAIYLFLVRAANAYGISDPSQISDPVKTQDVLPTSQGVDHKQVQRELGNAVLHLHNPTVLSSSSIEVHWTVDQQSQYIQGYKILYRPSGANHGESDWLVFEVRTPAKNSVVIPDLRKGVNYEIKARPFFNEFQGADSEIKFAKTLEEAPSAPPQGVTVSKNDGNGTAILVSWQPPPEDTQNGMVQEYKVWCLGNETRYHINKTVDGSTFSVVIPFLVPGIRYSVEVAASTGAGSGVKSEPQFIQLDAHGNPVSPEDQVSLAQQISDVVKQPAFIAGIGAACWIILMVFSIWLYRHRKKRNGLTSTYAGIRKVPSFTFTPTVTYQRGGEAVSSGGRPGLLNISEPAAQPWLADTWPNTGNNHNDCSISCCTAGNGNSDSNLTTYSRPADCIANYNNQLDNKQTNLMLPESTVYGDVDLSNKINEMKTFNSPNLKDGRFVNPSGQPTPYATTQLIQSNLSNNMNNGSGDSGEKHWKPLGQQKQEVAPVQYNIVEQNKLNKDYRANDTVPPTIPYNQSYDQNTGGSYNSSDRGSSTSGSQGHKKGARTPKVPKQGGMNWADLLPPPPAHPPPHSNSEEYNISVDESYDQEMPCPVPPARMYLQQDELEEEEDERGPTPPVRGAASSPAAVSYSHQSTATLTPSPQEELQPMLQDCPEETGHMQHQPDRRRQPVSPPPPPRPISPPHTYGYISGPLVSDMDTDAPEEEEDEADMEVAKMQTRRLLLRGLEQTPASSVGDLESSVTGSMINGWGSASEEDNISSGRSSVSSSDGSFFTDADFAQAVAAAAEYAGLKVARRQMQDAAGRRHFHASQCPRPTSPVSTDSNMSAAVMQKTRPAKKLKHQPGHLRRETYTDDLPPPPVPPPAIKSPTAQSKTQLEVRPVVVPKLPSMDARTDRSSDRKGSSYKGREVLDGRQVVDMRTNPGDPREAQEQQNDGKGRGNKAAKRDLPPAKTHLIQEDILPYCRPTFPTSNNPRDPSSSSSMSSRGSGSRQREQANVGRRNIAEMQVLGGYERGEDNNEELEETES

5HT2B = 5HT2B (Homo sapiens, UniProt P41595); test: Off-target profiling panel; format: binding; conditions: read-out: Inhibition by MBE1 at 10 μM (%)
Chain of 5HT2B (P41595 whole entry): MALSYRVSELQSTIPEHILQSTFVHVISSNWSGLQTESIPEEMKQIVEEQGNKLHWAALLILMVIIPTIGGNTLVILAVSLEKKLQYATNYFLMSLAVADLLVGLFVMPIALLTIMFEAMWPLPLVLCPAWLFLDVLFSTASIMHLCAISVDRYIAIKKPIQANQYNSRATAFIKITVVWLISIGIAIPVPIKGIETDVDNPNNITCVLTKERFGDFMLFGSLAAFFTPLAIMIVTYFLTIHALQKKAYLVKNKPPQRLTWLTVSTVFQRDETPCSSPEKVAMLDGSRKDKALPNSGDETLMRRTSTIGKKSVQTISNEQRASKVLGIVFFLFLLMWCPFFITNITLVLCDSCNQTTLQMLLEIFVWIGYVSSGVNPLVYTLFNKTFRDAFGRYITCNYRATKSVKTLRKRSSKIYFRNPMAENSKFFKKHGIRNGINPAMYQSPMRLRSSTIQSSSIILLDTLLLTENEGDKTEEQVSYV

H2 = H2 (Homo sapiens, UniProt P25021); test: Off-target profiling panel; format: binding; conditions: read-out: Inhibition by MBE1 at 10 μM (%)
Chain of H2 (P25021 whole entry): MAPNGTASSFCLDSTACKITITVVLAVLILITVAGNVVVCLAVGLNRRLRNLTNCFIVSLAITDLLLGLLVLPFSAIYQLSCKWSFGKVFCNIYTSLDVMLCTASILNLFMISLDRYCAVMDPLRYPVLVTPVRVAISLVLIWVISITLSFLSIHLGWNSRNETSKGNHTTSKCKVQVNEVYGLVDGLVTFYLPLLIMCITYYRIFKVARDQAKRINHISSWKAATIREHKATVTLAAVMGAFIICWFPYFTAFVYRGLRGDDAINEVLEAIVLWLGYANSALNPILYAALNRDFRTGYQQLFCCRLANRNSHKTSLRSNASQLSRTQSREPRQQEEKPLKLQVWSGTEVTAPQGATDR

DAT = DAT (Homo sapiens, UniProt Q01959); test: Off-target profiling panel; format: binding; conditions: read-out: Inhibition by MBE1 at 10 μM (%)
Chain of DAT (Q01959 whole entry): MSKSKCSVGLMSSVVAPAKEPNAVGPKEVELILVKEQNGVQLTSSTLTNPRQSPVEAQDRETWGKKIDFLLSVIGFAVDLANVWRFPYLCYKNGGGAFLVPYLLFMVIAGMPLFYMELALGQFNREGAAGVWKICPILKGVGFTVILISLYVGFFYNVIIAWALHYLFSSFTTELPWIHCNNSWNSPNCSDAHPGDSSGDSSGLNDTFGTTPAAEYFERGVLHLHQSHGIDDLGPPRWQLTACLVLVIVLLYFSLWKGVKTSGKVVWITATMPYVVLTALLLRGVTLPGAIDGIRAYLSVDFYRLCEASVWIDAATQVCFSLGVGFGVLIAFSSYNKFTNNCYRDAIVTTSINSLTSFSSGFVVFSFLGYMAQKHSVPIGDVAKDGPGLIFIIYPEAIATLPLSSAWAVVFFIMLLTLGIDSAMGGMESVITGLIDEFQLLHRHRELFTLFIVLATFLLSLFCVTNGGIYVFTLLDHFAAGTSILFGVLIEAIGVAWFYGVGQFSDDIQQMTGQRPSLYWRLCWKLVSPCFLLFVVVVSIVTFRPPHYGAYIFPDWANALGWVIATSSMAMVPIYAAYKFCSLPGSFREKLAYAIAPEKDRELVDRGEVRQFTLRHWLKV

Plasma stability (human) = format: in vitro ADME; conditions: read-out: Plasma stability T1/2 (human)
5HT1B = 5HT1B (Homo sapiens, UniProt P28222); test: Off-target profiling panel; format: binding; conditions: read-out: Inhibition by MBE1 at 10 μM (%)
Chain of 5HT1B (P28222 whole entry): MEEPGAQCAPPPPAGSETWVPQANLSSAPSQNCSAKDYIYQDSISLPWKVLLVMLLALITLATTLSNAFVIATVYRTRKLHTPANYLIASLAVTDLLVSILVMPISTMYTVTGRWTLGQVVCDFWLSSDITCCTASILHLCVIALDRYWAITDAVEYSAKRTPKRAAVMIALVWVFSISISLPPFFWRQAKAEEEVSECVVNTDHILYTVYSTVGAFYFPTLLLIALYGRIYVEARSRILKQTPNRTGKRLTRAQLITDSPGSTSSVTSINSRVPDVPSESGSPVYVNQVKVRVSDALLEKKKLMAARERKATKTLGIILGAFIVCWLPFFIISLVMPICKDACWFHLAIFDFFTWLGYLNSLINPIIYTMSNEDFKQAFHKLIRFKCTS

T3-MCA sarcoma = test: T3-MCA syngeneic tumor growth; format: in vivo, mouse; conditions: MBE1.5-formulated diet 270 ppm (equivalent 40 mg/kg per day), by day 7 of treatment
Experimental: A considerable number of research efforts have attempted to generate retinoid nuclear receptor pathway antagonists, whether through targeting retinoid transport, the atRA synthetic enzymes, or by creating inverse agonists of the RAR/RXR nuclear receptors. […] Thus, mice were injected subcutaneously with T3-MCA sarcoma cells and were randomized by tumor size once tumors became palpable. One group received MBE1.5-formulated diet at 270 ppm (equivalent dose of 40 mg/kg body mass per day based on average food consumption), and the other group received control diet.
No statistical method was used to predetermine the number of animals needed across experiments. Xenograft experiments were conducted using 50k cells suspended in 10 μL PBS for mammary gland injection or 100k cells in 100 μL PBS for subcutaneous injection. Bioluminescent imaging (BLI) and tumor measurement was conducted as previously described.[78] IV/PO pharmacokinetic analysis of MBE1 and MBE1.5 was conducted on male CD-1 mice from Vital River that had been fasted for 4 h. Sampling was performed from either jugular puncture or tail-vein sampling using BD yellow-capped tubes for serum analysis or K2-EDTA tubes for hematology. Medicated feed was manufactured at Envigo using MBE1.5 powder with a final concentration of 270 ppm. Medicated diet was stored at 4°C for no longer than 6 months at a time.

ALDH1A3 mRNA = test: RT-qPCR of ALDH1A3 mRNA after treatment; format: cell-based, human; conditions: multiple cell lines

SMILES | stabilization of NPTN in CETSA (in words) (NPTN) | 100nM MBE1 Tm (RHPN2) | DMSO-100nM MBE1 TM (RHPN2) | 100nM MBE1 Tm (ROBO1) | DMSO-100nM MBE1 TM (ROBO1) | inhibition at 10 µM (5HT2B) [%] | inhibition at 10 µM (H2) [%] | inhibition at 10 µM (DAT) [%] | half-life (Plasma stability (human)) [h] | inhibition at 10 µM (5HT1B) [%] | tumor growth (in words) (T3-MCA sarcoma) | feedback effect on ALDH1A3 expression (in words) (ALDH1A3 mRNA)
CCc1cnccc1C(=O)Nc1cc2c(cc1F)NC(=O)CC2 [MBE1, 3-ethyl-N-(7-fluoro-2-oxo-3,4-dihydro-1H-quinolin-6-yl)pyridine-4-carboxamide] | not stabilized | 58.0062 | -9.514 | 63.1814 | -8.49 | -6.81 | 4.29 | -13.1 | > 4.82 | 5.26 | – | –
CCc1ccccc1C(=O)Nc1cc2c(cc1F)NC(=O)CC2 [MBE1.5, 2-ethyl-N-(7-fluoro-2-oxo-3,4-dihydro-1H-quinolin-6-yl)benzamide] | – | – | – | – | – | – | – | – | – | – | dramatically reduced tumor growth | no feedback effect
